One block for each compound: values may come before it.
How the values were obtained:
Type in all cases: functional, cell-based
[1] = target: T1, ATP-dependent translocase ABCB1 (Homo sapiens, UniProt P08183); assay: TP_TRANSPORTER: inhibition of Rhodamine 123 efflux (R123: 10 uM, C6-GlcCer: 20 uM) in 2780AD cells
[2] = target: T1, ATP-dependent translocase ABCB1; assay: TP_TRANSPORTER: inhibition of Rhodamine 123 efflux (R123: 10 uM, C6-SM: 10 uM) in 2780AD cells
[3] = target: T1, ATP-dependent translocase ABCB1; assay: TP_TRANSPORTER: inhibition of Rhodamine 123 efflux (R123: 10 uM, C6-GalCer: 20 uM) in 2780AD cells
[4] = target: T1, ATP-dependent translocase ABCB1; assay: TP_TRANSPORTER: inhibition of Rhodamine 123 efflux (R123: 10 uM, C6-LacCer: 20 uM) in 2780AD cells

T1 sequence (P08183 whole entry): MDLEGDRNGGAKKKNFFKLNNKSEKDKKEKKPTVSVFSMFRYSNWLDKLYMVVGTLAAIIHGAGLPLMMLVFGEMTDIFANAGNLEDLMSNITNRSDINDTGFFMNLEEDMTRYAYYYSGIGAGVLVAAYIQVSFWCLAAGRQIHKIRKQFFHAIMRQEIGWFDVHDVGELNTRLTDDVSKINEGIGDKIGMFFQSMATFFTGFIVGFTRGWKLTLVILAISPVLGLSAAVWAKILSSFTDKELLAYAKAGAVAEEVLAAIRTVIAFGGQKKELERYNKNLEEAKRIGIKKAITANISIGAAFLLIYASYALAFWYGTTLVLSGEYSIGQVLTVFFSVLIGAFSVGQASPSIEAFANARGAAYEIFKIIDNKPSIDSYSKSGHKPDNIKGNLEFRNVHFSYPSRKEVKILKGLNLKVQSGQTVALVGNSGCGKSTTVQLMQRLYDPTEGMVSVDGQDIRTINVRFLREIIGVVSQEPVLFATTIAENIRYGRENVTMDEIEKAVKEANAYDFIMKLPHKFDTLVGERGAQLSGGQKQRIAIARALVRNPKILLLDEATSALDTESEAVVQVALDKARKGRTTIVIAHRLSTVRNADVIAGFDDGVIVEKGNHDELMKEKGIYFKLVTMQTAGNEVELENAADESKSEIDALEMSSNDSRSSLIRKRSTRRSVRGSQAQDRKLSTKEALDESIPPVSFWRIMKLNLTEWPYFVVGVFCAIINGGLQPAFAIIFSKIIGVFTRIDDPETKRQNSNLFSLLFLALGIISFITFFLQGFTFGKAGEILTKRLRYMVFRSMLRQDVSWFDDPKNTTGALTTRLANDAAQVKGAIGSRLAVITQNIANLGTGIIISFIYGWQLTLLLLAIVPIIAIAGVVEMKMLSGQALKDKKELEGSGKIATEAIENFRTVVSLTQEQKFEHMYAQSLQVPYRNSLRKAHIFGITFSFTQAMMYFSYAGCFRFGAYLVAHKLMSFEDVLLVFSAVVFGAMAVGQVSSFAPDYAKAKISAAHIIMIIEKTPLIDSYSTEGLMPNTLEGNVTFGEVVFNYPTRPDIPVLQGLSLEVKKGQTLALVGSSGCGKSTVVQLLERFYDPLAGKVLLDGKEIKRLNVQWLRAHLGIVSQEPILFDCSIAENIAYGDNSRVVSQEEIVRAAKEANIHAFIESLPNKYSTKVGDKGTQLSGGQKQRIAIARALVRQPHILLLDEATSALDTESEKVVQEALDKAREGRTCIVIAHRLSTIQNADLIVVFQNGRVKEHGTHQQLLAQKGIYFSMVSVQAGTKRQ

- Activity [1]: inhibitor [+]
SMILES: CCCCCCCCCCCCC/C=C/[C@@H](O)[C@H](CO[C@@H]1O[C@H](CC)[C@@H](O)[C@H](O)[C@H]1O)NC(=O)CCCCCC

- Activity [2]: inhibitor [+]
SMILES: CCCCCCCCCCCCCCCC(O)C(CO)NC(=O)CCCCCC (centres undefined)

- Activity [3]: inhibitor [+]
SMILES: CCCCCCCCCCCCC/C=C/[C@@H](O)[C@H](CO[C@@H]1O[C@H](CC)[C@H](O)[C@H](O)[C@H]1O)NC(=O)CCCCCC

- Activity [4]: inhibitor [+]
SMILES: CCCCCCCCCCCCC/C=C/[C@@H](O)[C@H](CO[C@@H]1O[C@H](CC)[C@@H](O[C@@H]2O[C@H](CO)[C@@H](O)[C@H](O)[C@H]2O)[C@H](O)[C@H]1O)NC(=O)CCCCCC
